Measurements from ChEMBL document CHEMBL1909046, “DrugMatrix in vitro pharmacology data”.

Experiments:
Neutrophil elastase = biological target: T1, Neutrophil elastase (Homo sapiens, UniProt P08246); type: tissue-based;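 further: inhibition of neutrophil elastase enzyme activity, measured with a p-nitroanilide-linked peptide substrate; in other assays of this panel Not Active means under 50% inhibition at 10 µM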
T1 sequence (P08246 whole entry): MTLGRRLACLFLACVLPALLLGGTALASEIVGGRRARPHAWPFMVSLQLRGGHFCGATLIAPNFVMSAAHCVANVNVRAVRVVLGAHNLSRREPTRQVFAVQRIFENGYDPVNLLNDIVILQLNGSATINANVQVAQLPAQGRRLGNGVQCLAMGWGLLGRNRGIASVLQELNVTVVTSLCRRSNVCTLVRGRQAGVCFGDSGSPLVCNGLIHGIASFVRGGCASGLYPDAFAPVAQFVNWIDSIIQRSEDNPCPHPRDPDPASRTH

[1] = DRUGMATRIX: Leukotriene, BLT (LTB4) radioligand binding (ligand: [3H]LTB4); type: cell membranes, Membrane; details: u-937; Not Active = under 50% inhibition at 10 µM
D(3) dopamine receptor = D(3) dopamine receptor (Homo sapiens, UniProt P35462); experiment: DRUGMATRIX: Dopamine D3 radioligand binding (ligand: [3H] Spiperone); type: cell membranes, CHO, Membrane
Chain of D(3) dopamine receptor (P35462 whole entry): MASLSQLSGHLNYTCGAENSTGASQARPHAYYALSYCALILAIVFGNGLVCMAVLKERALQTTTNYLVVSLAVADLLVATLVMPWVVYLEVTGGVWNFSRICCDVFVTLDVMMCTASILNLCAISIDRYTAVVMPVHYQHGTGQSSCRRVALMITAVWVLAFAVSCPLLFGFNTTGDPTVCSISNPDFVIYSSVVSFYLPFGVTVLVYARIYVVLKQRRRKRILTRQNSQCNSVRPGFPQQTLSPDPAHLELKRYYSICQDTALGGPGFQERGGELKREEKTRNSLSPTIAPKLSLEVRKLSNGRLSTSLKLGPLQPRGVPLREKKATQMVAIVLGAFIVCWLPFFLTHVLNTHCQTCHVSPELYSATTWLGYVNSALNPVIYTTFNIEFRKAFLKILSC

Interstitial collagenase = biological target: T2, Interstitial collagenase (Homo sapiens, UniProt P03956); experiment: biochemical; type: tissue-based, Rheumatoid synovial fibroblasts;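 further: MMP-1 enzyme inhibition assay using a peptide substrate; in other assays of this panel Not Active means under 50% inhibition at 10 µM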
T2 sequence (P03956 whole entry): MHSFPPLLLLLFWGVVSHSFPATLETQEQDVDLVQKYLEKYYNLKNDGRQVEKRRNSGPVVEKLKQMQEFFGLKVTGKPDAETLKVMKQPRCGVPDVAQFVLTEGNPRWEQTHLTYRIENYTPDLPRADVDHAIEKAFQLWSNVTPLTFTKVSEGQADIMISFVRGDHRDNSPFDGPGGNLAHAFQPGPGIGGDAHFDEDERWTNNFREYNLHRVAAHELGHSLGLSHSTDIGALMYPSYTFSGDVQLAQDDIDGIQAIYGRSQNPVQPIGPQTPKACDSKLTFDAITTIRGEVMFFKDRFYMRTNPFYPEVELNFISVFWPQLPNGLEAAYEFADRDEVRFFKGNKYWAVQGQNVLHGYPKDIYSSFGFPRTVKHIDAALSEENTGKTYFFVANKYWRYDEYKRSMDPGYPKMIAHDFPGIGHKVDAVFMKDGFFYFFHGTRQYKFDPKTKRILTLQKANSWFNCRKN

[2] = DRUGMATRIX: Phosphodiesterase PDE4 enzyme inhibition (substrate: [3H]cAMP + cAMP); details: u-937, Not Active = under 50% inhibition at 10 µM
[3] = biological target: C-C chemokine receptor type 5 (Homo sapiens, UniProt P51681); type: cell membranes, HEK293, Membrane; details: hek293; further: in other assays of this panel Not Active means under 50% inhibition at 10 µM
Chain of C-C chemokine receptor type 5 (P51681 whole entry): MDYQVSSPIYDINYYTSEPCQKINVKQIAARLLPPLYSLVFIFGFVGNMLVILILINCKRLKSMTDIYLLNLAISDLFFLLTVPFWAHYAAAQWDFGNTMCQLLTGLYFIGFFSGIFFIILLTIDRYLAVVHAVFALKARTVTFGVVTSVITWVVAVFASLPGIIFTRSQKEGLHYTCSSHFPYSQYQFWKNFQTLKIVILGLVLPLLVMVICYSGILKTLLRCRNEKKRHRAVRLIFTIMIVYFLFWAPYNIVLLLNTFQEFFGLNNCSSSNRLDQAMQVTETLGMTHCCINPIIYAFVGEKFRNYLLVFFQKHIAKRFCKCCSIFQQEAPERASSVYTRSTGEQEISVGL

[4] = biological target: T3, Cholecystokinin receptor type A (Homo sapiens, UniProt P32238); type: cell membranes, Membrane; details: 1321-n1; further: in other assays of this panel Not Active means under 50% inhibition at 10 µM
T3 sequence (P32238 whole entry): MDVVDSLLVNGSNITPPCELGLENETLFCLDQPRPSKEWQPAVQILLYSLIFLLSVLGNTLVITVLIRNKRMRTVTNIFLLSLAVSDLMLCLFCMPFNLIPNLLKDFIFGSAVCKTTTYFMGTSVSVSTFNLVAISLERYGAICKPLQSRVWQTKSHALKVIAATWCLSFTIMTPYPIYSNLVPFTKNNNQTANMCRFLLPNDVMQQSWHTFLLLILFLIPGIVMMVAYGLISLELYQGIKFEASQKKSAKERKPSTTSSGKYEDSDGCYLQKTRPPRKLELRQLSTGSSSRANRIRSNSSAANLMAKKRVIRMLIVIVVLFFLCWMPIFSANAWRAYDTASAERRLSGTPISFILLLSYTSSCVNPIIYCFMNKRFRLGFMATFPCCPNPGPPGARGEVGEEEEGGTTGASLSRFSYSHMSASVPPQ

Compound | IC50 (Neutrophil elastase) | IC50 [1] | Ki [1] | IC50 (D(3) dopamine receptor; read-out: IC50) | Ki (D(3) dopamine receptor; read-out: Ki) | IC50 (Interstitial collagenase) | IC50 [2] | Ki [2] | IC50 [3] | IC50 [4] | IC50 (D(3) dopamine receptor; cho) | Ki (Neutrophil elastase) | Ki (D(3) dopamine receptor; cho) | Ki (Interstitial collagenase) | Ki [3] | Ki [4] | IC50 ([2]; read-out: IC50)
CC(CN1c2ccccc2Sc2ccccc21)N(C)C (stereo not drawn) [PROMETHAZINE] | Not Active | Not Active | Not Active | 559 nM | 190 nM | Not Active | Not Active | Not Active | Not Active | Not Active |  |  |  |  |  |  | 
c1ccc(Cn2ccnc2)cc1 | Not Active | Not Active | Not Active |  |  | Not Active | Not Active | Not Active | Not Active | Not Active | Not Active |  |  |  |  |  | 
CC(C)Cn1cnc2c(N)nc3ccccc3c21 [IMIQUIMOD] | Not Active | Not Active | Not Active |  |  | Not Active | Not Active | Not Active | Not Active | Not Active | Not Active |  |  |  |  |  | 
OC[C@H]1OC2C3[C@@H](CO)OC(O[C@H]4[C@H](O)[C@@H](O)[C@@H](O[C@H]5[C@H](O)[C@@H](O)[C@@H](O[C@H]6[C@H](O)[C@@H](O)[C@@H](O[C@H]7[C@H](O)[C@@H](O)[C@@H](O[C@H]8[C@H](O)[C@@H](O)[C@@H](O[C@H]9[C@H](O)[C@@H](O)C(OC1[C@H](O)[C@H]2O)O[C@@H]9CO)O[C@@H]8CO)O[C@@H]7CO)O[C@@H]6CO)O[C@@H]5CO)O[C@@H]4CO)[C@H](O)[C@H]3O | Not Active | Not Active | Not Active |  |  | Not Active | Not Active | Not Active | Not Active | Not Active | Not Active |  |  |  |  |  | 
COc1cc(/C=C/C(=O)O)ccc1O [FERULATE] | Not Active | Not Active | Not Active |  |  | Not Active | Not Active | Not Active | Not Active | Not Active | Not Active |  |  |  |  |  | 
CCN1C[C@]2(COC)[C@H](O)C[C@H](OC)[C@@]34[C@@H]5C[C@@]6(O)[C@H](OC(=O)c7ccccc7)[C@@H]5[C@@](OC(C)=O)([C@@H]([C@H](OC)[C@H]23)[C@@H]14)[C@@H](O)[C@@H]6OC [ACONITINE] | Not Active | Not Active | Not Active |  |  | Not Active | Not Active | Not Active | Not Active | Not Active | Not Active |  |  |  |  |  | 
CO[C@H]1O[C@@H]2O[C@@]3(C)CC[C@H]4[C@H](C)CC[C@@H]([C@H]1C)[C@@]24OO3 | Not Active | Not Active | Not Active |  |  | Not Active | Not Active | Not Active | Not Active | Not Active | Not Active |  |  |  |  |  | 
C[C@@H]1[C@H](O)[C@@H](C)/C=C/C=C/C=C/C=C/C=C/C=C/C=C/[C@H](O[C@@H]2O[C@H](C)[C@@H](O)[C@H](N)[C@@H]2O)C[C@@H]2O[C@](O)(C[C@@H](O)C[C@@H](O)[C@H](O)CC[C@@H](O)C[C@@H](O)CC(=O)O[C@H]1C)C[C@H](O)[C@H]2C(=O)O [AMPHOTERICIN B] | Not Active | Not Active | Not Active |  |  | Not Active | Not Active | Not Active | Not Active | Not Active | Not Active |  |  |  |  |  | 
Oc1ncnc2[nH]ncc12 [ALLOPURINOL] | Not Active | Not Active | Not Active |  |  | Not Active | Not Active | Not Active | Not Active | Not Active | Not Active |  |  |  |  |  | 
COc1cc([C@@H]2c3cc4c(cc3[C@H](O)[C@H]3COC(=O)[C@H]23)OCO4)cc(OC)c1OC [PODOFILOX] | Not Active | Not Active | Not Active |  |  | Not Active | Not Active | Not Active | Not Active | Not Active | Not Active |  |  |  |  |  | 
NC(=O)CN1CCCC1=O | Not Active | Not Active | Not Active |  |  | Not Active | Not Active | Not Active | Not Active | Not Active | Not Active |  |  |  |  |  | 
POVIDONE | Not Active | Not Active | Not Active |  |  | Not Active | Not Active | Not Active | Not Active | Not Active | Not Active | Not Active | Not Active | Not Active | Not Active | Not Active | 
Cc1c(N)nc([C@H](CC(N)=O)NC[C@H](N)C(N)=O)nc1C(=O)N[C@H](C(=O)N[C@H](C)[C@@H](O)[C@H](C)C(=O)N[C@H](C(=O)NCCc1nc(-c2nc(C(=O)NCCC[S+](C)C)cs2)cs1)[C@@H](C)O)[C@@H](O[C@@H]1O[C@@H](CO)[C@@H](O)[C@H](O)[C@@H]1O[C@H]1O[C@H](CO)[C@@H](O)[C@H](OC(N)=O)[C@@H]1O)c1c[nH]cn1.[Br-] [BLEOMYCIN A2] | Not Active | Not Active | Not Active |  |  | Not Active | Not Active | Not Active | Not Active | Not Active | Not Active |  |  |  |  |  | 
CN(Cc1cc(Br)cc(Br)c1N)C1CCCCC1 [BROMHEXINE] | Not Active | Not Active | Not Active |  |  | Not Active | Not Active | Not Active | Not Active | Not Active | Not Active |  |  |  |  |  | 
Nc1ccc(Cc2ccc(N)cc2)cc1 | Not Active | Not Active | Not Active |  |  | Not Active | Not Active | Not Active | Not Active | Not Active | Not Active |  |  |  |  |  | 
C[C@]12CC[C@@H](O)C[C@@H]1CC[C@@H]1[C@@H]2CC[C@]2(C)C(=O)CC[C@@H]12 [ANDROSTERONE] | Not Active | Not Active | Not Active |  |  | Not Active | Not Active | Not Active | Not Active | Not Active | Not Active |  |  |  |  |  | 
O=C(O)c1ccccc1 [BENZOIC ACID] | Not Active | Not Active | Not Active |  |  | Not Active | Not Active | Not Active | Not Active | Not Active | Not Active |  |  |  |  |  | 
CC(=O)Nc1ccc2c(c1)Cc1ccccc1-2 [2-ACETYLAMINOFLUORENE] | Not Active | Not Active | Not Active |  |  | Not Active | Not Active | Not Active | Not Active | Not Active | Not Active |  |  |  |  |  | 
C[C@H](C(=O)O)c1ccc2oc(-c3ccc(F)cc3)nc2c1 [FLUNOXAPROFEN] | Not Active | Not Active | Not Active |  |  | Not Active | Not Active | Not Active | Not Active | Not Active | Not Active |  |  |  |  |  | 
C[C@H]1C[C@H]2[C@@H]3CCC4=CC(=O)C=C[C@]4(C)[C@@]3(F)[C@@H](O)C[C@]2(C)[C@@]1(O)C(=O)CO [BETAMETHASONE] | Not Active | Not Active | Not Active |  |  | Not Active | Not Active | Not Active | Not Active | Not Active | Not Active |  |  |  |  |  | 
CN(CCOc1ccc(C[C@H](Nc2ccccc2C(=O)c2ccccc2)C(=O)O)cc1)c1ccccn1 | Not Active | Not Active | Not Active |  |  | Not Active |  |  | Not Active | Not Active | Not Active |  |  |  |  |  | 7450 nM
NS(=O)(=O)c1cc(C(=O)O)c(NCc2ccco2)cc1Cl [FUROSEMIDE] | Not Active | Not Active | Not Active |  |  | Not Active | Not Active | Not Active | Not Active | Not Active | Not Active |  |  |  |  |  | 
